In the NIST ThermoML archive (doi:10.1021/je060271a):
± gives the expanded uncertainty stated by the source.

Settings: 343.15 K, Liquid, Vibrating tube method

CCCCCCC(=O)OCC(COC(=O)CCCCCC)(COC(=O)CCCCCC)COC(=O)CCCCCC [pentaerythritol tetraheptanoate]
Settings	mass density [kg/m3]
20585 kPa	955.2 ± 1.2
20620 kPa	955.3 ± 1.2
20649 kPa	955.4 ± 1.2
20679 kPa	955.3 ± 1.2
20691 kPa	955.3 ± 1.2
20708 kPa	955.3 ± 1.2
20744 kPa	955.3 ± 1.2
20773 kPa	955.5 ± 1.2
20781 kPa	955.3 ± 1.2
20803 kPa	955.4 ± 1.2
20839 kPa	955.3 ± 1.2
20869 kPa	955.5 ± 1.2
20905 kPa	955.6 ± 1.2
20935 kPa	955.4 ± 1.2
20965 kPa	955.6 ± 1.2
20996 kPa	955.5 ± 1.2
21033 kPa	955.5 ± 1.2
21064 kPa	955.6 ± 1.2
21069 kPa	955.7 ± 1.2
21096 kPa	955.6 ± 1.2
21102 kPa	955.7 ± 1.2
21133 kPa	955.6 ± 1.2
21165 kPa	955.6 ± 1.2
21196 kPa	955.7 ± 1.2
21229 kPa	955.8 ± 1.2
21267 kPa	955.7 ± 1.2
21295 kPa	955.7 ± 1.2
21320 kPa	955.9 ± 1.2
21350 kPa	955.8 ± 1.2
21376 kPa	955.8 ± 1.2
21401 kPa	955.8 ± 1.2
21432 kPa	955.8 ± 1.2
21456 kPa	955.9 ± 1.2
21483 kPa	955.8 ± 1.2
21509 kPa	955.8 ± 1.2
21540 kPa	955.9 ± 1.2
21565 kPa	955.9 ± 1.2
21591 kPa	955.9 ± 1.2
21622 kPa	956 ± 1.2
21647 kPa	956 ± 1.2
21678 kPa	955.9 ± 1.2
21704 kPa	955.9 ± 1.2
21730 kPa	956.1 ± 1.2
21760 kPa	956 ± 1.2
21786 kPa	956.1 ± 1.2
21813 kPa	956.2 ± 1.2
21840 kPa	956.1 ± 1.2
21872 kPa	956.1 ± 1.2
21898 kPa	956.2 ± 1.2
21930 kPa	956.1 ± 1.2
21956 kPa	956 ± 1.2
21983 kPa	956.1 ± 1.2
22010 kPa	956.2 ± 1.2
22042 kPa	956.2 ± 1.2
22069 kPa	956.3 ± 1.2
22096 kPa	956.1 ± 1.2
22127 kPa	956.3 ± 1.2
22129 kPa	956.2 ± 1.2
22156 kPa	956.3 ± 1.2
22161 kPa	956.2 ± 1.2
22190 kPa	956.3 ± 1.2
22195 kPa	956.4 ± 1.2
22217 kPa	956.2 ± 1.2
22244 kPa	956.3 ± 1.2
22272 kPa	956.3 ± 1.2
22300 kPa	956.3 ± 1.2
22332 kPa	956.4 ± 1.2
22360 kPa	956.5 ± 1.2
22388 kPa	956.4 ± 1.2
22421 kPa	956.4 ± 1.2
22449 kPa	956.5 ± 1.2
22478 kPa	956.4 ± 1.2
22512 kPa	956.6 ± 1.2
22540 kPa	956.6 ± 1.2
22570 kPa	956.6 ± 1.2
22599 kPa	956.7 ± 1.2
22633 kPa	956.5 ± 1.2
22661 kPa	956.6 ± 1.2
22690 kPa	956.6 ± 1.2
22704 kPa	956.7 ± 1.2
22724 kPa	956.6 ± 1.2
22740 kPa	956.7 ± 1.2
22753 kPa	956.8 ± 1.2
22782 kPa	956.6 ± 1.2
22817 kPa	956.7 ± 1.2
22846 kPa	956.8 ± 1.2
22874 kPa	956.6 ± 1.2
22910 kPa	956.7 ± 1.2
22939 kPa	956.9 ± 1.2
22970 kPa	956.7 ± 1.2
23000 kPa	956.8 ± 1.2
23030 kPa	956.9 ± 1.2
23066 kPa	956.9 ± 1.2
23095 kPa	956.9 ± 1.2
23125 kPa	956.9 ± 1.2
23162 kPa	957 ± 1.2
23191 kPa	957 ± 1.2
23227 kPa	957 ± 1.2
23257 kPa	957.1 ± 1.2
23288 kPa	957 ± 1.2
23318 kPa	957 ± 1.2
23355 kPa	957 ± 1.2
23387 kPa	957.1 ± 1.2
23417 kPa	957.1 ± 1.2
23454 kPa	957.1 ± 1.2
23484 kPa	957.2 ± 1.2
23516 kPa	957.2 ± 1.2
23552 kPa	957.1 ± 1.2
23584 kPa	957.2 ± 1.2
23615 kPa	957.2 ± 1.2
23646 kPa	957.2 ± 1.2
23681 kPa	957.3 ± 1.2
